# Experimental data reported in EP0007206A1, “Phenethanolamines, their formulations, preparation and use” (ELI LILLY AND COMPANY, priority 1978, dated 1980).
# Where a name gives a salt, the structure may show the parent alone.
# How the values were obtained:
# [1] = tested on: Chinese hamster ovary cells; experiment: mitotic arrest assay (mitotic inhibitory activity); type: cell-based; conditions: 20.0 mcg/ml, five hours contact
# Method: One such test, for example, was a determination of mitotic inhibitory activity. The compounds of this invention have the ability to arrest cultured cells at the mitotic phase (metaphase) of the cell cycle without apparent effect on other stages of the cell cycle. Such mitotic inhibitory activity is an indication that the compounds may have a beneficial effect on the biological activities of antineoplastic drugs. […] The compounds of the invention were administered at 20 mcg./ml. and the number of cells arrested at the mitotic phase out of 1000 cultured cells were counted and compared to the controls which underwent mitotic arrest without a drug present. Two evaluations were carried out for each test compound. The results reported are the percent of cells held at mitosis after five hours contact with the compound of this invention.
# [2] = tested on: aly fast tumor strain of bronchiogenic carcinoma of the lung; experiment: combination chemotherapy with cytoxan, implanted bronchiogenic carcinoma (Table 4); type: in vivo, hamsters; conditions: cytoxan 10 mg./kg. i.p. once daily, A 10 mg./kg. s.c. twice daily
# Method: (§1) In a typical experiment, laboratory mice were infected by a subcutaneous implantation of a tumor tissue in the axillary region of the body. The implantations were accomplished by means of a trocar. Initial tumor size in each animal generally was about 2 square millimeters. Tumor size was then measured periodically as length and width in mm. Typical tumor systems implanted included adenocarcinoma 755, an Aly Fast strain of bronchiogenic carcinoma, and mecca lymphosarcoma. Oncolytic agents utilized in the tests to determine the potentiating effects of the compounds of the invention.include cytoxan, 5-fluorouracil, vindesine, methotrexate and 6-mercaptopurine. Twenty or thirty infected animals generally were selected as controls and received placebo. Ten infected animals normally were selected to receive a known oncolytic agent. Another ten infected animals were administered the known oncolytic agent in addition to a compound of this invention.
# In a similar test, hamsters were infected with an aly fast tumor strain of bronchiogenic carcinoma of the lung. Cytoxan was administered to one group of infected animals at an intraperitoneal dose of 10 mg./kg. once daily. A compound of this invention, N-(2-phenyl-2-hydroxyethyl)-l,l-dimethyl-3-(4-hydroxyphenyl)propylaminium bromide (designated in Table 4 as A), caused a significant synergistic effect when co-administered with cytoxan. Cytoxan was administered i.p. once daily at 10 mg./kg. to the animals receiving the combination chemotherapy, and compound A was administered subcutaneously at the rate of 10 mg./kg. twice daily. It should be noted that the average tumor size for the animals receiving the combination of cytoxan and N-(2-phenyl-2-hydroxyethyl)-l,l-dimethyl-3-(4-hydroxyphenyl)-propylaminium bromide was only 20 square millimeters after the nineteenth day of treatment, while the average tumor size for the group receiving cytoxan was about the same as that for the animals receiving placebo, namely about 1340 square millimeters.
# 755 adenocarcinoma = experiment: combination chemotherapy with cytoxan at varying doses, implanted 755 adenocarcinoma (Table 8); type: in vivo
# Method: as §1
# A similar study was carried out with cytoxan at varying doses and the combination of cytoxan and N-(2-phenyl-2-hydroxyethyl)-l,l-dimethyl-3-(4-aminocarbonylphenyl)propylaminium chloride. A group of ten animals infected with the 755 adenocarcinoma were given cytoxan intraperitoneally at the rate of 25 mg./kg. once per day on days 5, 9 and 13 of the test. Another group of infected animals received cytoxan at 12.5 mg./kg. once per day on days 5, 9 and 13. A third group of infected animals received the combination of cytoxan, given i.p. at 12.5 mg./kg. on days 5, 9 and 13, and the compound of this invention (compound B) given subcutaneously twice daily on days 5 through 14 at the dose of 7.5 mg./kg. As indicated by the data, all of the control animals and those receiving the oncolytic agent alone were dead after 73 days. In contrast, six of the ten animals which received combination chemotherapy were still living after 73 days of the test, and all of those still living were tumor free.
# [3] = tested on: adenocarcinoma (CA 755 tumor); experiment: combination chemotherapy with vindesine, implanted adenocarcinoma (Table 5); type: in vivo, mice; conditions: vindesine 0.6 mg./kg. i.p. days 1, 5, 9, 13, B 7.5 mg./kg. i.p. twice daily first 15 days
# Method: as §1
# The animals receiving combination chemotherapy were administered vindesine intraperitoneally according to the above-indicated dosage regimen, and N-(2-phenyl-2-hydroxyethyl)-1,1-dimethyl-3-(4-aminocarbonylphenyl)propylaminium chloride was administered intraperitoneally at the rate of 7.5 mg./kg. twice daily for the first 15 days of the test. Under column I of each of the indicated days of measurement is given the average tumor size in square millimeters for each test group. Column II under each of the indicated days of measurement provides the number of tumor free animals out of those still living on that particular day in each test group. […] In contrast, all of the control animals and those receiving vindesine alone had died by day 40, and none were tumor free after the thirteenth day of the test.
# [4] = Day 5, cytoxan 12.5 mg./kg. i.p. days 5, 9, 13, B 7.5 mg./kg. s.c. twice daily days 5 through 14
# [5] = Day 5, cytoxan 25 mg./kg. i.p. once per day on days 5, 9, 13
# [6] = Day 12, cytoxan 12.5 mg./kg. i.p. days 5, 9, 13, B 7.5 mg./kg. s.c. twice daily days 5 through 14
# [7] = Day 12, cytoxan 25 mg./kg. i.p. once per day on days 5, 9, 13
# [8] = Day 17, cytoxan 12.5 mg./kg. i.p. days 5, 9, 13, B 7.5 mg./kg. s.c. twice daily days 5 through 14
# [9] = Day 17, cytoxan 25 mg./kg. i.p. once per day on days 5, 9, 13
# [10] = Day 23, cytoxan 12.5 mg./kg. i.p. days 5, 9, 13, B 7.5 mg./kg. s.c. twice daily days 5 through 14
# [11] = Day 23, cytoxan 25 mg./kg. i.p. once per day on days 5, 9, 13
# [12] = Day 29, cytoxan 12.5 mg./kg. i.p. days 5, 9, 13, B 7.5 mg./kg. s.c. twice daily days 5 through 14
# [13] = Day 29, cytoxan 25 mg./kg. i.p. once per day on days 5, 9, 13
compound,measurement,setting,value
"CC(C)(CCc1ccc(C(N)=O)cc1)NCC(O)c1ccccc1 (centres unmarked) [N-(2-Phenyl-2-hydroxyethyl)-1,1-dimethyl-3-(4-aminocarbonylphenyl)propylamine]",Mitotic Index (percent of cells held at mitosis),[1]; first of two evaluations,57%
same,Mitotic Index (percent of cells held at mitosis),[1]; second of two evaluations,45%
"O=P1(N(CCCl)CCCl)NCCCO1 (centres unmarked) [Cytoxan, cytoxan]",number of surviving animals out of test group,[2]; Day 0,10/10
same,average tumor size,[2]; Day 8,560 square millimeters
same,number of surviving animals out of test group,[2]; Day 8,10/10
same,average tumor size,[2]; Day 13,950 square millimeters
same,number of surviving animals out of test group,[2]; Day 13,9/10
same,average tumor size,[2]; Day 19,1340 square millimeters
same,number of surviving animals out of test group,[2]; Day 19,6/10
same,average tumor size,"[2]; Day 19, listed as cytoxan",about 1340 square millimeters
same,number of tumor free animals out of those still living,"755 adenocarcinoma; Day 0, cytoxan 12.5 mg./kg. i.p. days 5, 9, 13, B 7.5 mg./kg. s.c. twice daily days 5 through 14",0/10
same,number of tumor free animals out of those still living,"755 adenocarcinoma; Day 0, cytoxan 25 mg./kg. i.p. once per day on days 5, 9, 13",0/10
same,average tumor size,755 adenocarcinoma; [4],130
same,number of tumor free animals out of those still living,755 adenocarcinoma; [4],0/10
same,average tumor size,755 adenocarcinoma; [5],80
same,number of tumor free animals out of those still living,755 adenocarcinoma; [5],0/10
same,average tumor size,755 adenocarcinoma; [6],190
same,number of tumor free animals out of those still living,755 adenocarcinoma; [6],0/10
same,average tumor size,755 adenocarcinoma; [7],60
same,number of tumor free animals out of those still living,755 adenocarcinoma; [7],1/10
same,average tumor size,755 adenocarcinoma; [8],300
same,number of tumor free animals out of those still living,755 adenocarcinoma; [8],0/10
same,average tumor size,755 adenocarcinoma; [9],60
same,number of tumor free animals out of those still living,755 adenocarcinoma; [9],4/10
same,average tumor size,755 adenocarcinoma; [10],600
same,number of tumor free animals out of those still living,755 adenocarcinoma; [10],1/9
same,average tumor size,755 adenocarcinoma; [11],200
same,number of tumor free animals out of those still living,755 adenocarcinoma; [11],2/9
same,average tumor size,755 adenocarcinoma; [12],800
same,number of tumor free animals out of those still living,755 adenocarcinoma; [12],0/4
same,average tumor size,755 adenocarcinoma; [13],570
same,number of tumor free animals out of those still living,755 adenocarcinoma; [13],0/4
same,number of tumor free animals out of those still living,"755 adenocarcinoma; Day 73, cytoxan 12.5 mg./kg. i.p. days 5, 9, 13, B 7.5 mg./kg. s.c. twice daily days 5 through 14",0/0
same,number of tumor free animals out of those still living,"755 adenocarcinoma; Day 73, cytoxan 25 mg./kg. i.p. once per day on days 5, 9, 13",0/0
"CCC1(O)CC2CN(CCc3c([nH]c4ccccc34)C(C(=O)OC)(c3cc4c(cc3OC)N(C)C3C(O)(C(N)=O)C(O)C5(CC)C=CCN6CCC43C65)C2)C1 (centres unmarked) [VDS, vindesine]",number of tumor free animals out of those still living,[3]; Day 0,0/10
same,average tumor size,[3]; Day 8,35 square millimeters
same,number of tumor free animals out of those still living,[3]; Day 8,3/9
same,average tumor size,[3]; Day 13,170 square millimeters
same,number of tumor free animals out of those still living,[3]; Day 13,0/8
same,average tumor size,[3]; Day 19,300 square millimeters
same,number of tumor free animals out of those still living,[3]; Day 19,0/8
same,average tumor size,[3]; Day 26,620 square millimeters
same,number of tumor free animals out of those still living,[3]; Day 26,0/6
same,number of tumor free animals out of those still living,[3]; Day 40,0/0
"CN(C)C(=O)c1ccc(CCC(C)(C)NCC(O)c2ccccc2)cc1 (racemic) [N-(2-phenyl-2-hydroxyethyl)-1,1-dimethyl-3-(4-dimethylaminocarbonylphenyl)propylaminium oxalate]",Mitotic Index (percent of cells held at mitosis),[1]; first of two evaluations,40%
same,Mitotic Index (percent of cells held at mitosis),[1]; second of two evaluations,46%
"CC(C)(CCc1ccc(O)cc1)NCC(O)c1ccccc1 (racemic) [N-(2-Phenyl-2-hydroxyethyl)-l,l-dimethyl-3-(4-hydroxyphenyl)propylamine]",Mitotic Index (percent of cells held at mitosis),[1]; first of two evaluations,36%
same,Mitotic Index (percent of cells held at mitosis),[1]; second of two evaluations,33%
"CNC(=O)c1ccc(CCC(C)(C)NCC(O)c2ccccc2)cc1 (racemic) [N-(2-phenyl-2-hydroxyethyl)-l,l-dimethyl-3-(4-methylaminocarbonylphenyl)propylaminium chloride]",Mitotic Index (percent of cells held at mitosis),[1]; first of two evaluations,36%
same,Mitotic Index (percent of cells held at mitosis),[1]; second of two evaluations,38%
